{"source": "patent US20080031982A1", "about": "(Metaproteomics, LLC, priority 2006, published 2008)", "key": {"MSSK1": {"molecular_target": "MSSK1 (Homo sapiens, UniProt Q9UPE1)", "sequence (Q9UPE1 whole entry)": "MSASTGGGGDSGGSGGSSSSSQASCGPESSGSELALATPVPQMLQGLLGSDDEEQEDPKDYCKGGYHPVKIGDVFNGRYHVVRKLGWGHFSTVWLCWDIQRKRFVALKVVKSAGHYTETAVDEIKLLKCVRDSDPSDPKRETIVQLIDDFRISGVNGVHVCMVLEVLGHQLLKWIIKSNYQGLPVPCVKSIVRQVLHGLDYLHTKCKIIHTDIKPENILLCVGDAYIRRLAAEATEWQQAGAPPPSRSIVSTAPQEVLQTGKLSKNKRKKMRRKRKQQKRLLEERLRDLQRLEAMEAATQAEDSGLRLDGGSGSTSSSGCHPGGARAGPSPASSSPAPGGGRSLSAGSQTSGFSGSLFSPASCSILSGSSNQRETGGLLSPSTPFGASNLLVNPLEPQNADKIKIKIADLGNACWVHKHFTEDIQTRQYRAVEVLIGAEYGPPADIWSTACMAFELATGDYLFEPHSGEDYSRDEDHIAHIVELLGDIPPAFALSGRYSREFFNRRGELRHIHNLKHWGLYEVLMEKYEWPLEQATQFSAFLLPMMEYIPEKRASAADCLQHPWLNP", "assay": "KinaseProfiler Assay"}, "JAK3": {"molecular_target": "T1, JAK3 (Homo sapiens, UniProt P52333)", "T1 sequence (P52333 1-1124)": "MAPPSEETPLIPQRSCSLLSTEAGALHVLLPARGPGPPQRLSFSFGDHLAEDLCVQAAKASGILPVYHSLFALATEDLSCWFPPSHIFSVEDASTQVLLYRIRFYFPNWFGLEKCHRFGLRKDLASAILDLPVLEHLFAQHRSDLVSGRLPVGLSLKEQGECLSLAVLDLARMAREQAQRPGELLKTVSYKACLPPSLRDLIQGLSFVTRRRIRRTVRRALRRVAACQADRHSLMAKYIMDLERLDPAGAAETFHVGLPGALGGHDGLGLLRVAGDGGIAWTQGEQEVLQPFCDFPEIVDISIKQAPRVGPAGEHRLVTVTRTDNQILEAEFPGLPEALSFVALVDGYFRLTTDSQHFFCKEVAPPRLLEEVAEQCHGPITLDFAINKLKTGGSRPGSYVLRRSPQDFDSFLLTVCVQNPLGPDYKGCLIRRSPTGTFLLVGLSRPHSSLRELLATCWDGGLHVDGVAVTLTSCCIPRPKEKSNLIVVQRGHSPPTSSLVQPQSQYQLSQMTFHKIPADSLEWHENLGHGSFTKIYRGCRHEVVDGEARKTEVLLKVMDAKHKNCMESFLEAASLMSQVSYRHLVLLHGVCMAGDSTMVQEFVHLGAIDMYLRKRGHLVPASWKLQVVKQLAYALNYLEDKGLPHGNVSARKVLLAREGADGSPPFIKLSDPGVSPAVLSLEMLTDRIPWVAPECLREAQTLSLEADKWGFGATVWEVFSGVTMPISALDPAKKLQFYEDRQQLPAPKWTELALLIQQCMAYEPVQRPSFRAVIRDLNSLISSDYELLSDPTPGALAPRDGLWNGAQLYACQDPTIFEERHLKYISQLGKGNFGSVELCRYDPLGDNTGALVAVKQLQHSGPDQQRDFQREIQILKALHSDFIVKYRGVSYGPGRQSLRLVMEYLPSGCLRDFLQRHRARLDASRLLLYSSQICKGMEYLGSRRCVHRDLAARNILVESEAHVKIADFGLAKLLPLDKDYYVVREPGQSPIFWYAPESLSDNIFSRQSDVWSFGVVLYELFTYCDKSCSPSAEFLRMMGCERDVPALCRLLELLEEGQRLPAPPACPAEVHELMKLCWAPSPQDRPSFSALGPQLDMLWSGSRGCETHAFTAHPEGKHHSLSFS", "assay": "KinaseProfiler Assay"}, "MAPK1": {"molecular_target": "MAPK1 (Homo sapiens, UniProt P27361)", "sequence (P27361 whole entry)": "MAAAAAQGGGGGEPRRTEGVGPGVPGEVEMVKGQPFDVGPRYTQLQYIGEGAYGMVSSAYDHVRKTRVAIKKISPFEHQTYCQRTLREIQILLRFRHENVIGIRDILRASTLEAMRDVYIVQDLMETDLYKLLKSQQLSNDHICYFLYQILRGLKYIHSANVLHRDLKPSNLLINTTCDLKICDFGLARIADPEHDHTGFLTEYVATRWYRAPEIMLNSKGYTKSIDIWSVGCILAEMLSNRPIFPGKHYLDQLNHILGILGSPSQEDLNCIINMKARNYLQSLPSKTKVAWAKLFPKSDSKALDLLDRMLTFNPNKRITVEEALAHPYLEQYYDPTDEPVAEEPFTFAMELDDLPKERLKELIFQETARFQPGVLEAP", "assay": "KinaseProfiler Assay"}, "Ros": {"molecular_target": "Ros (Homo sapiens, UniProt P08922)", "sequence (P08922 28-2347)": "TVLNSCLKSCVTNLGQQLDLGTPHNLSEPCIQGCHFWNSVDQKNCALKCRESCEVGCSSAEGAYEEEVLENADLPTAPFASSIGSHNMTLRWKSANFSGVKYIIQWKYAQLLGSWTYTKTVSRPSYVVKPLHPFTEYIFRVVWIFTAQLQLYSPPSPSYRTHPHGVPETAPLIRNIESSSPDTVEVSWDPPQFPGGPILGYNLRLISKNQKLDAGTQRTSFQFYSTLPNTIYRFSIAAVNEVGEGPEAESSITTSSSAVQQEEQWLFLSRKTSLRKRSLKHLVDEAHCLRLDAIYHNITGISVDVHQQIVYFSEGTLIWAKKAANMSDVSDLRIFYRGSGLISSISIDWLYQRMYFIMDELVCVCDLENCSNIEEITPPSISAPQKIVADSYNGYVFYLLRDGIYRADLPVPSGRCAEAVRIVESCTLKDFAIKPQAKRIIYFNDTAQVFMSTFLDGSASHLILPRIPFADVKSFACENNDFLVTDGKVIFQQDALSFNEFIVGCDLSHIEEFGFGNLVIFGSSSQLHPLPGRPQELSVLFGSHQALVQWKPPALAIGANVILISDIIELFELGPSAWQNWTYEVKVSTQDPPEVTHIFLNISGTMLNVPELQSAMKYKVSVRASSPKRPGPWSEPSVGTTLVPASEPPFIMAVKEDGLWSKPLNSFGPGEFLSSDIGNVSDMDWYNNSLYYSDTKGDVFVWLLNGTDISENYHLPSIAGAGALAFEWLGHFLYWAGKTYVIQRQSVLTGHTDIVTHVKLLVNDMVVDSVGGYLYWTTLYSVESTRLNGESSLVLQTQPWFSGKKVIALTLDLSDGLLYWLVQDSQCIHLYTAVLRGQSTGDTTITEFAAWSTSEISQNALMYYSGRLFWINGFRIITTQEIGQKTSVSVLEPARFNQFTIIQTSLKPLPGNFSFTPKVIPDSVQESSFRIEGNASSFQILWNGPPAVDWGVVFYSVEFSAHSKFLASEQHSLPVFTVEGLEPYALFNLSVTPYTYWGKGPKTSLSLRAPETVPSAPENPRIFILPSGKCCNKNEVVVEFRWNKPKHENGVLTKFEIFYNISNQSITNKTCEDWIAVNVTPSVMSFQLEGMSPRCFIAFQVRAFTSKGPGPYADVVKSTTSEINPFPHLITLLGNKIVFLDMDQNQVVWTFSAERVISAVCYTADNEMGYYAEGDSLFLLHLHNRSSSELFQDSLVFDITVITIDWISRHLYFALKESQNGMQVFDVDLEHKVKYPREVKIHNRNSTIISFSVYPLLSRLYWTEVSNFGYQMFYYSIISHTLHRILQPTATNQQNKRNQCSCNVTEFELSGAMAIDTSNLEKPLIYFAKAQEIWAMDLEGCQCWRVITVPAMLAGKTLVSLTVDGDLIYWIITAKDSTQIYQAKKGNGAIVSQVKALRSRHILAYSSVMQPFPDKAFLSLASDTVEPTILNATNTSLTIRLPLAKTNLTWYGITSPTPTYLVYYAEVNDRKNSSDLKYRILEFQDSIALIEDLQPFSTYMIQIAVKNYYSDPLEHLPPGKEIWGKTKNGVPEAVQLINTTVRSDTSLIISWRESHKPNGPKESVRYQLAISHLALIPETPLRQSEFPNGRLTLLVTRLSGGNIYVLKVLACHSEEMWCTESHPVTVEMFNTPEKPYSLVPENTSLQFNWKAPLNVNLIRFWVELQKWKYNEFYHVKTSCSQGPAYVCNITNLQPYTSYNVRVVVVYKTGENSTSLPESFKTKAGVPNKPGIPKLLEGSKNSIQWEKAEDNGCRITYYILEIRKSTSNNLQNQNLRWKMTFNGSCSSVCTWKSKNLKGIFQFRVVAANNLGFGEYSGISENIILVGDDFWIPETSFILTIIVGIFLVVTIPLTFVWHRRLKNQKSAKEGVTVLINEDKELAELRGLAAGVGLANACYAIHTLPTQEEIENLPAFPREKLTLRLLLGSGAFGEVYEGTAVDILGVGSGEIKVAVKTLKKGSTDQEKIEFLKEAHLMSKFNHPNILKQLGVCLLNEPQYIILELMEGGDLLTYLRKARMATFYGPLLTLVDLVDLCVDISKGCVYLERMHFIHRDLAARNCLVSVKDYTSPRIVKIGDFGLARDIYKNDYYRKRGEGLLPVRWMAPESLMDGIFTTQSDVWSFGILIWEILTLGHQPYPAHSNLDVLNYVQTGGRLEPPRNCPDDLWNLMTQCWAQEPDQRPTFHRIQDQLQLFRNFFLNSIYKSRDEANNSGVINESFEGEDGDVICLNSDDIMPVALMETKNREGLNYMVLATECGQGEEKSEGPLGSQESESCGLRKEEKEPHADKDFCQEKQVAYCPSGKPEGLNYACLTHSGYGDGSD", "assay": "KinaseProfiler Assay"}, "Fes": {"molecular_target": "Fes (Homo sapiens, UniProt P07332)", "assay": "KinaseProfiler Assay"}, "CK1γ2": {"molecular_target": "CK1γ2 (Homo sapiens, UniProt P78368)", "assay": "KinaseProfiler Assay"}, "TSSK2": {"molecular_target": "T2, TSSK2 (Homo sapiens, UniProt Q96PF2)", "T2 sequence (Q96PF2 1-358)": "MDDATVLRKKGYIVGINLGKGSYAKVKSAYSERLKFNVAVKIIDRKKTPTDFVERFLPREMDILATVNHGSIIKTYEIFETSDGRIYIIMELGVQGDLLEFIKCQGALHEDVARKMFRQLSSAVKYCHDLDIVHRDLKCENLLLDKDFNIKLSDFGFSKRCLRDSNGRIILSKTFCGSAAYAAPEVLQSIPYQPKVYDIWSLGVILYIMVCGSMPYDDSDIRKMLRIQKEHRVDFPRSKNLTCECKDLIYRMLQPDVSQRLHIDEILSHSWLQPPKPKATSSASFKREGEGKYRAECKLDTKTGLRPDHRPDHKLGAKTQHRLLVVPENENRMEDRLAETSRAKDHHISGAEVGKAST", "assay": "KinaseProfiler Assay"}, "CDK5/p25": {"molecular_target": "CDK5/p25 (Homo sapiens, UniProt Q00535)", "assay": "KinaseProfiler Assay"}, "TrkA": {"molecular_target": "TrkA (Homo sapiens, UniProt P04629)", "assay": "KinaseProfiler Assay"}, "DAPK2": {"molecular_target": "DAPK2 (Homo sapiens, UniProt Q9UIK4)", "assay": "KinaseProfiler Assay"}, "PKBβ": {"molecular_target": "PKBβ (Homo sapiens, UniProt P31751)", "sequence (P31751 whole entry)": "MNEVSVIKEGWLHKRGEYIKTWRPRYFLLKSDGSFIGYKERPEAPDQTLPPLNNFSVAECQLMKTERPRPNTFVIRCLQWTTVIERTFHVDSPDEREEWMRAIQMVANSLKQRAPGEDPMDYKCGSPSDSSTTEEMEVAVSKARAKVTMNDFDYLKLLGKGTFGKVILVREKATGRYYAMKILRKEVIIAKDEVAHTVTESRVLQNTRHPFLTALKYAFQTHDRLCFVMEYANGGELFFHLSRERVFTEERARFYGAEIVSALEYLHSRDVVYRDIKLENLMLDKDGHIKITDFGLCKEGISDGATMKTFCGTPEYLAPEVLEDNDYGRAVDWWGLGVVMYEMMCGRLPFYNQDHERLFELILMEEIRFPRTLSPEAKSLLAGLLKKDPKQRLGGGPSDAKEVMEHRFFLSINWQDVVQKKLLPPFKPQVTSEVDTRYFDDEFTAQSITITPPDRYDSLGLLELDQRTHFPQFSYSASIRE", "assay": "KinaseProfiler Assay"}, "3T3-L1 adipocytes": {"tested_on": "3T3-L1 adipocytes", "assay": "Lipogenesis in 3T3-L1 adipocytes (Oil Red O / BODIPY)", "type": "cell-based, murine", "conditions": "relative to solvent and positive controls", "experimental": "Prior to experiments, cells were cultured in DMEM containing 10% FBS-HI added 50 units penicillin/ml and 50 μg streptomycin/ml, and maintained in log phase prior to experimental setup. Cells were grown in a 5% CO2 humidified incubator at 37° C. Components of the pre-confluent medium included (1) 10% FBS/DMEM containing 4.5 g glucose/L; (2) 50 U/ml penicillin; and (3) 50 μg/ml streptomycin. Growth medium was made by adding 50 ml of heat inactivated FBS and 5 ml of penicillin/streptomycin to 500 ml DMEM. This medium was stored at 4° C. Before use, the medium was warmed to 37° C. in a water bath.\n3T3-T1 cells were seeded at an initial density of 6×10^4 cells/cm^2 in 24-well plates. For two days, the cells were allowed grow to reach confluence. Following confluence, the cells were forced to differentiate into adipocytes by the addition of differentiation medium; this medium consisted of (1) 10% FBS/DMEM (high glucose); (2) 0.5 mM methylisobutylxanthine; (3) 0.5 μM dexamethasone and (4) 10 μg/ml insulin (MDI medium). After three days, the medium was changed to post-differentiation medium consisting of 10 μg/ml insulin in 10% FBS/DMEM.\nWhenever fresh media were added, fresh test material was also added.\nOil Red 0 Staining—Triglyceride content of D6/D7-differentiated 3T3-L1 cells was estimated with Oil Red 0 according to the method of Kasturi and Joshi [Kasturi, R. and Joshi, V. C. […] Monolayer cells were washed with PBS (phosphate buffered saline, Mediatech) and fixed with 10% formaldehyde for ten minutes. Fixed cells were stained with an Oil Red 0 working solution of three parts 0.6% Oil Red O/isopropanol stock solution and two parts water for one hour and the excess stain was washed once with water. The resulting stained oil droplets were extracted from the cells with isopropanol and quantified by spectrophotometric analysis at 540 nm (MEL312e BIO-KINETICS READER, Bio-Tek Instruments, Winooski, Vt.).\nBriefly, media were removed and cells were washed once with non-sterile PBS. A stock 1000× BODIPY/DMSO solution was made by dissolving 1 mg BODIPY in 1 ml DMSO (1,000 μg BODIPY/ml). […] One-hundred μl of this working solution (1 μg BODIPY) was added to each well of a 96-well microtiter plate. After 15 min on an orbital shaker (DS-500, VWR Scientific Products, South Plainfield, N.J.) at ambient temperature, the cells were washed with 100 μl PBS followed by the addition of 100 μl PBS for reading for spectrofluorometric determination of BODIPY incorporation into the cells.\nNonpolar lipid incorporation was represented relative to the nonpolar lipid accumulation of fully differentiated cells in the solvent controls."}, "MAPKAP-K2": {"molecular_target": "MAPKAP-K2 (Homo sapiens, UniProt P49137)", "sequence (P49137 whole entry)": "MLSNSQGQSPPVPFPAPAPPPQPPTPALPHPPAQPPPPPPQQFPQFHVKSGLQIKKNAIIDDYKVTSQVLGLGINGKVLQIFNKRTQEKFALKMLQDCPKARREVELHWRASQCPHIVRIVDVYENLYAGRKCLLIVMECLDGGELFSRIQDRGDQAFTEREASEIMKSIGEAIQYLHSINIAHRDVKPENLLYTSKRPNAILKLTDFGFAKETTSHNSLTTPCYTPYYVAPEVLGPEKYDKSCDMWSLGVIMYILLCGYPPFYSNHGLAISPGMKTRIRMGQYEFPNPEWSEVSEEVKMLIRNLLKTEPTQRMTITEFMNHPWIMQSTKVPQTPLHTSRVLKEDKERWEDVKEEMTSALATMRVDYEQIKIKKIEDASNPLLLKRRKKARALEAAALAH", "assay": "KinaseProfiler Assay"}, "CDK5/p35": {"molecular_target": "CDK5/p35 (Homo sapiens, UniProt Q00535)", "sequence (Q00535 whole entry)": "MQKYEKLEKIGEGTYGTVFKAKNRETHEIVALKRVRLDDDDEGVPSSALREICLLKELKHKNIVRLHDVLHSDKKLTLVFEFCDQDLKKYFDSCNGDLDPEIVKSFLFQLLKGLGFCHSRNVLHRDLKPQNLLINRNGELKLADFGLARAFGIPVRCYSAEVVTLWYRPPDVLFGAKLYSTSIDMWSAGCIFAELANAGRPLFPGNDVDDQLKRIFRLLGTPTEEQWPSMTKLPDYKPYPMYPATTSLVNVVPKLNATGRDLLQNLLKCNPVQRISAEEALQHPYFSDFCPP", "sequence (Q15078 whole entry partner)": "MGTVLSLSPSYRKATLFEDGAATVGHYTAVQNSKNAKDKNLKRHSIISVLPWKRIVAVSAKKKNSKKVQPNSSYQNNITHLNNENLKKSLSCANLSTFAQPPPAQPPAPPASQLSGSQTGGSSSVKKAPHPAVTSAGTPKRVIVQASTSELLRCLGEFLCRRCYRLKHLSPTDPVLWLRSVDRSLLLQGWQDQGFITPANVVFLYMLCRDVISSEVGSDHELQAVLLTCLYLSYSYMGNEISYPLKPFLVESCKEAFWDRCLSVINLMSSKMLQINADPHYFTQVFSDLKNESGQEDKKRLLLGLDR", "assay": "KinaseProfiler Assay"}}}
{"smiles": "COc1cc(O)c(CC=C(C)C)c(O)c1C(=O)/C=C/c1ccc(O)cc1", "note": "[Xanthohumol, xanthohumol]", "values": [{"measurement": "Kinase activity, % of Control", "setting": "MSSK1; 1 ug/ml", "value": "47 % of Control"}, {"measurement": "Kinase activity, % of Control", "setting": "MSSK1; 5 ug/ml", "value": "11 % of Control"}, {"measurement": "Kinase activity, % of Control", "setting": "MSSK1; 25 ug/ml", "value": "7 % of Control"}, {"measurement": "Kinase activity, % of Control", "setting": "MSSK1; 50 ug/ml", "value": "5 % of Control"}, {"measurement": "Kinase activity, % of Control", "setting": "JAK3; 1 ug/ml", "value": "104 % of Control"}, {"measurement": "Kinase activity, % of Control", "setting": "JAK3; 5 ug/ml", "value": "84 % of Control"}, {"measurement": "Kinase activity, % of Control", "setting": "JAK3; 25 ug/ml", "value": "17 % of Control"}, {"measurement": "Kinase activity, % of Control", "setting": "JAK3; 50 ug/ml", "value": "5 % of Control"}, {"measurement": "Kinase activity, % of Control", "setting": "MAPK1; 5 ug/ml", "value": "64 % of Control"}, {"measurement": "Kinase activity, % of Control", "setting": "MAPK1; 25 ug/ml", "value": "19 % of Control"}, {"measurement": "Kinase activity, % of Control", "setting": "MAPK1; 50 ug/ml", "value": "17 % of Control"}, {"measurement": "Kinase activity, % of Control", "setting": "Ros; 1 ug/ml", "value": "101 % of Control"}, {"measurement": "Kinase activity, % of Control", "setting": "Ros; 5 ug/ml", "value": "99 % of Control"}, {"measurement": "Kinase activity, % of Control", "setting": "Ros; 25 ug/ml", "value": "85 % of Control"}, {"measurement": "Kinase activity, % of Control", "setting": "Ros; 50 ug/ml", "value": "94 % of Control"}, {"measurement": "Kinase activity, % of Control", "setting": "Fes; 1 ug/ml", "value": "131 % of Control"}, {"measurement": "Kinase activity, % of Control", "setting": "Fes; 5 ug/ml", "value": "106 % of Control"}, {"measurement": "Kinase activity, % of Control", "setting": "Fes; 25 ug/ml", "value": "102 % of Control"}, {"measurement": "Kinase activity, % of Control", "setting": "Fes; 50 ug/ml", "value": "26 % of Control"}, {"measurement": "Kinase activity, % of Control", "setting": "CK1γ2; 1 ug/ml", "value": "92 % of Control"}, {"measurement": "Kinase activity, % of Control", "setting": "CK1γ2; 5 ug/ml", "value": "48 % of Control"}, {"measurement": "Kinase activity, % of Control", "setting": "CK1γ2; 25 ug/ml", "value": "30 % of Control"}, {"measurement": "Kinase activity, % of Control", "setting": "CK1γ2; 50 ug/ml", "value": "12 % of Control"}, {"measurement": "Kinase activity, % of Control", "setting": "TSSK2; 1 ug/ml", "value": "102 % of Control"}, {"measurement": "Kinase activity, % of Control", "setting": "TSSK2; 5 ug/ml", "value": "95 % of Control"}, {"measurement": "Kinase activity, % of Control", "setting": "TSSK2; 25 ug/ml", "value": "61 % of Control"}, {"measurement": "Kinase activity, % of Control", "setting": "TSSK2; 50 ug/ml", "value": "48 % of Control"}, {"measurement": "Kinase activity, % of Control", "setting": "CDK5/p25; 25 ug/ml", "value": "24 % of Control"}, {"measurement": "Kinase activity, % of Control", "setting": "CDK5/p25; 50 ug/ml", "value": "87 % of Control"}, {"measurement": "Kinase activity, % of Control", "setting": "TrkA; 1 ug/ml", "value": "36 % of Control"}, {"measurement": "Kinase activity, % of Control", "setting": "TrkA; 5 ug/ml", "value": "19 % of Control"}, {"measurement": "Kinase activity, % of Control", "setting": "TrkA; 25 ug/ml", "value": "8 % of Control"}, {"measurement": "Kinase activity, % of Control", "setting": "TrkA; 50 ug/ml", "value": "3 % of Control"}, {"measurement": "Kinase activity, % of Control", "setting": "DAPK2; 1 ug/ml", "value": "105 % of Control"}, {"measurement": "Kinase activity, % of Control", "setting": "DAPK2; 5 ug/ml", "value": "88 % of Control"}, {"measurement": "Kinase activity, % of Control", "setting": "DAPK2; 25 ug/ml", "value": "45 % of Control"}, {"measurement": "Kinase activity, % of Control", "setting": "DAPK2; 50 ug/ml", "value": "26 % of Control"}, {"measurement": "Kinase activity, % of Control", "setting": "PKBβ; 1 ug/ml", "value": "146 % of Control"}, {"measurement": "Kinase activity, % of Control", "setting": "PKBβ; 5 ug/ml", "value": "102 % of Control"}, {"measurement": "Kinase activity, % of Control", "setting": "PKBβ; 25 ug/ml", "value": "1 % of Control"}, {"measurement": "Kinase activity, % of Control", "setting": "PKBβ; 50 ug/ml", "value": "8 % of Control"}, {"measurement": "adipogenic / lipogenic response", "setting": "3T3-L1 adipocytes", "value": "comparable to indomethacin and troglitazone"}, {"measurement": "Kinase activity, % of Control", "setting": "MAPKAP-K2; 1 ug/ml", "value": "99 % of Control"}, {"measurement": "Kinase activity, % of Control", "setting": "MAPKAP-K2; 5 ug/ml", "value": "95 % of Control"}, {"measurement": "Kinase activity, % of Control", "setting": "MAPKAP-K2; 25 ug/ml", "value": "6 % of Control"}, {"measurement": "Kinase activity, % of Control", "setting": "MAPKAP-K2; 50 ug/ml", "value": "8 % of Control"}, {"measurement": "Kinase activity, % of Control", "setting": "CDK5/p35; 1 ug/ml", "value": "103 % of Control"}, {"measurement": "Kinase activity, % of Control", "setting": "CDK5/p35; 5 ug/ml", "value": "102 % of Control"}, {"measurement": "Kinase activity, % of Control", "setting": "CDK5/p35; 25 ug/ml", "value": "41 % of Control"}, {"measurement": "Kinase activity, % of Control", "setting": "CDK5/p35; 50 ug/ml", "value": "44 % of Control"}]}
